From publication PMC9696579 (Nature structural & molecular biology, 2022)
Where a SMILES comes first, the peptide text is derived from it. The star is where a group is joined. 5FAM = O=C1OC2(c3ccc(O)cc3Oc3cc(O)ccc32)c2ccc(C(=O)*)cc21; PEG3 = NCCOCCOCCOCCC(=O)O

Experiments:
human PKA-Cα = human PKA-Cα (Homo sapiens, UniProt P17612); assay: Fluorescence polarization, FAM-labeled SMO peptide binding to human PKA-Cα; details: human or mouse PKA-Cα
smo−/− zebrafish = assay: Slow muscle specification in smo−/− zebrafish embryos; format: in vivo, Danio rerio; details: mRNA injection; Prox1 / Engrailed staining; <26 hours post-fertilization
GLI = GLI transcriptional reporter assay in Smo−/− MEFs; format: cell-based, mouse; details: ShhN conditioned medium, 2 days, n = three
PKA-Cα [1] = assay: SMO / PKA-C colocalization in cilia of IMCD3 cells; format: cell-based; details: WRR mutation, SAG21k 1 μM overnight
PKA-Cα [2] = assay: BRET analysis of SMO / PKA-C interactions in IMCD3 cells; format: cell-based, mouse; details: PKA-C expressed at near-endogenous levels, n = three
PKA-Cα [3] = assay: BRET analysis of SMO / PKA-C interactions in HEK293 cells; format: cell-based, mouse; details: nanoluc-tagged SMO657 with YFP-tagged PKA-Cα, mean, n = three
mouse PKA-Cα = mouse PKA-Cα (Mus musculus, UniProt P05132); assay: Surface plasmon resonance; details: SPR
SMO [4] = assay: Immunofluorescence of SMO and endogenous PKA-C in NIH3T3 cilia
SMO [5] = details: inverse agonist; cited from earlier work
[6] = target: mouse PKA catalytic subunit (Cα) (Mus musculus, UniProt P05132); assay: In vitro PKA-C activity assay; format: biochemical; details: read-out: IC50 for PKA-C activity; recombinant SMO pCT; apparent IC50; 15–30 nM Cα, 260 μM Kemptide, 100 μM ATP, 10 mM MgCl2, 100 mM MOPS pH 7; 3 min preincubation, room temperature; two independent experiments

## CC[C@H](C)[C@H](NC(=O)[C@H](C)NC(=O)CNC(=O)[C@H](CCCNC(=N)N)NC(=O)[C@H](CCCNC(=N)N)NC(=O)[C@H](C)NC(=O)[C@@H](NC(=O)[C@H](CCSC)NC(=O)[C@H](CCCCN)NC(=O)[C@@H](NC(=O)[C@@H](NC(=O)[C@H](Cc1c[nH]cn1)NC(=O)[C@H](CCC(N)=O)NC(=O)[C@H](C)NC(=O)[C@H](Cc1c[nH]c2ccccc12)NC(=O)[C@H](C)NC(=O)[C@H](CO)NC(=O)[C@H](CO)NC(=O)[C@@H](NC(=O)[C@H](CC(=O)O)NC(=O)[C@H](C)NC(=O)[C@H](CO)NC(=O)CCOCCOCCOCCNC(=O)c1ccc2c(c1)C(=O)OC21c2ccc(O)cc2Oc2cc(O)ccc21)C(C)C)C(C)C)[C@@H](C)O)C(C)C)C(=O)N[C@@H](CC(C)C)C(=O)N1CCC[C@H]1C(=O)O ({5FAM-PEG3}-SADVSSAWAQHVTKMVARRGAILP-OH)
Human PKA-Cα
  ATP dependence of interaction with PKA-Cα: strongly ATP-dependent

## wild-type SMO: full-length wild-type SMO construct
smo−/− zebrafish
  muscle specification in smo−/− zebrafish: restored correct muscle specification
GLI
  GLI transcriptional response: strong GLI transcriptional responses to Hh ligands

## SMO WRR: full-length SMO with WRR mutation (SADVSSAAAQHVTKMVAAAGAILPQDVSVTPVATPVPP)
PKA-Cα [1]
  colocalization with PKA-C in cilia: dramatically reduced colocalization in cilia
GLI
  GLI transcriptional response: almost completely devoid of activity
PKA-Cα [2]
  interaction with PKA-C (BRET): prevented interaction between SMO and PKA-C

## wild-type SMO657: nanoluc-tagged truncated SMO construct
PKA-Cα [3]
  BRET with PKA-C: strong, specific BRET

## SMO pCT: recombinant protein encompassing the entire 93 amino-acid SMO pCT, GST-tagged for SPR
Mouse PKA-Cα; ATP and MgCl2 omitted, PKA-Cα […]
  ATP/MgCl2 dependence of PKA-C binding: depended strictly on ATP and MgCl2
Mouse PKA-Cα; mouse PKA-Cα, ATP and MgCl2 present
  binding to PKA-Cα: bound specifically to mouse PKA-Cα

## CC1=C2C[C@H]3[C@@H](CC=C4C[C@@H](O)CC[C@@]43C)[C@@H]2CC[C@]12O[C@@H]1C[C@H](C)CN[C@H]1[C@H]2C [cyclopamine]
SMO [4]; NIH3T3, cyclopamine 5 μM, 8 hours
  SMO colocalization with endogenous PKA-C in primary cilium: did not occur
SMO [5]
  effect on SMO (accumulation in cilia, conformation): induces SMO to accumulate in cilia but traps it in an inactive conformation

## recombinant SMO pCT: residues 565–657 of mouse SMO, cleaved from MBP-His8-SUMO tags
[6]
  IC50: 10.9 µM

## CNC1CCC(N(Cc2cccc(-c3ccncc3)c2)C(=O)c2sc3ccccc3c2Cl)CC1 (stereo not shown) [SAG]
SMO [4]; NIH3T3 stably expressing SMO-V5-TurboID, SAG 100 nM, anti-V5
  accumulation of SMO in cilia: dramatic accumulation of SMO in cilia
